Data: paper PMC6155625 (Molecules : A Journal of Synthetic Chemistry and Natural …, 2017)
pIC50: −log10 of the molar value. Marks after values point to notes of the source that are not given here.

What was measured:
[1] = tested on: HepG2 cells; conditions: read-out: IC50 (cell survival, MTT), 42 h treatment
Method: Thereafter, the medium was removed, and replaced by 200 µL of DMSO. The absorbance was measured at 540 and 690 nm using an xMarkTM Microplate Spectrophotometer (Bio-Rad Laboratories, Inc., Berkeley, CA, USA).

[2] = tested on: S. typhimurium TA100; conditions: HF 0.075–2 µg/plate + sodium azide 50 µg/plate; without S9
Method: (§1) The Ames assay was conducted according to the method modified by Maron and Ames. In the Ames test, three bacterial strains of S. typhimurium (TA97, TA98, and TA100) were used. These strains are deficient in histidine and biotin, and, at the same time, they are deficient in excision repair. Prior to each experiment, the quality of each bacterial strain was checked similarly, as described by Berg et al.. The assay was carried out in sterile test tubes containing 100 µL (approximately 1.10^8 cells/mL) of overnight bacterial culture (overnight cultivated in 50 mL of LB medium) and 2.5 mL of the top-agar (with traces of histidine and biotin). In the case of metabolic activation, S9 mix was used to activate a promutagen 2-aminofluorene (50 µg/plate, Serva, Heidelberg, Germany). […] As positive controls (PC), the following diagnostic/direct mutagens were used: 9-aminoacridine (50 µg/plate, Serva, Heidelberg, Germany) for TA97; 4-nitroquinoline-1-oxide (20 µg/plate, Serva, Heidelberg, Germany) for TA98; and sodium azide (50 µg/plate, Serva, Heidelberg, Germany) for TA100. […] After 48 h of cultivation at 37 °C, his^+ revertants were counted. All experiments were conducted in triplicate. The data obtained were then analyzed using Student’s t-test.

[3] = tested on: S. typhimurium TA98; conditions: all HF concentrations (0.075–2 µg/plate) + 4-NQO 20 µg/plate; without S9
Method: as §1

[4] = tested on: Salmonella typhimurium TA97; conditions: HF 0.075–2 µg/plate + 9-aminoacridine 50 µg/plate; without S9
Method: as §1

[5] = tested on: HepG2 cells; experiment: In vitro mammalian chromosome aberration test on HepG2; format: cell-based, human
Method: HepG2 and VH10 cells were seeded into Petri dishes (Ø = 60 mm; HepG2 inoculum of 1 × 10^6 cells/dish and VH10 inoculum of 3.8 × 10^5 cells/dish) for 2 h. […] Three hours before the end of the cultivation, colchicine (0.75 µg/mL) was added. Before karyological processing, the cells were counted. Slides were prepared by the standard air-drying method and were stained with 2% aqueos Giemsa-Romanowski solution for 10 min.
(§2) Chromosome aberrations were evaluated by a microscopic examination. For each sample, 100 metaphases were analyzed. We focused on the following structural aberrations; breaks, chromatid, and iso-chromatid, and exchanges, including dicentrics, rings, tri-radials and quadri-radials. The results were evaluated statistically on the basis of the difference between two relative values. The percentage of aberrant metaphases and the total number of chromosome aberrations was compared to solvent control (SC), or clastogenic effect, and positive control (PC), or anticlastogenic effect. Since the genetic significance of gaps is not clearly understood, they were not included in the assessment of chromosomal damage and thus were not evaluated statistically.

[6] = tested on: VH10 cells; experiment: In vitro mammalian chromosome aberration test on VH10; format: cell-based, human; conditions: for Number of Aberrant Metaphases / Number of Chromosome Aberrations, Chromatid b/f / Number of Chromosome Aberrations, Chromatid g / Number of Chromosome Aberrations, Exchange dic / Number of Chromosome Aberrations, Exchange qr / Number of Chromosome Aberrations, Exchange tr / Number of Chromosome Aberrations, Isochromatid b/f / Total Number of CA: 100 metaphases
Method: HepG2 and VH10 cells were seeded into Petri dishes (Ø = 60 mm; HepG2 inoculum of 1 × 10^6 cells/dish and VH10 inoculum of 3.8 × 10^5 cells/dish) for 2 h. Then, HF non-clastogenic concentrations (0.75 or 1.5 µM) were added and the cultures were incubated for 24 h. These concentrations of HF were chosen based on preliminary experiments (range-finding tests). Afterwards the medium was replaced with fresh medium alone or with fresh medium containing mutagens B(a)P (1.7 μM for HepG2 cells) or cisPt (0.5 μM for HepG2 cells and 0.75 μM for VH10 cells), and the HepG2 cells were cultivated further for 42 h and VH10 cells for 36 h, which approximately corresponds to 1.3 cell cycles of HepG2 and VH10 cells. Three hours before the end of the cultivation, colchicine (0.75 µg/mL) was added. Before karyological processing, the cells were counted. Slides were prepared by the standard air-drying method and were stained with 2% aqueos Giemsa-Romanowski solution for 10 min.
as §2

[7] = tested on: human lymphocytes; conditions: HF 0.02–1 µM pretreatment, then zeocin 4.5 µM
Method: In the alkaline comet assay human lymphocytes were used. They were isolated from peripheral blood obtained by the finger prick method. To 1 mL of ice cold 1× PBS, 40 μL of peripheral blood was added and allowed to stand on ice for 30 min. Lymphocytes were separated from whole blood samples by standard centrifugation with 100 μL of the Histopaque medium (Sigma-Aldrich). After the centrifugation, 200 μL of isolated cells were resuspended in 1 mL of 1× PBS buffer and re-centrifuged.
This assay was selected for detecting the potential antigenotoxic effect of HF towards zeocin on the human lymphocytes. […] Briefly, human lymphocytes were suspended in 1% low melting point agarose (LMP) in PBS and placed on slides pre-coated with 1% normal melting point agarose (NMP). Slides with embedded lymphocytes were incubated for 1 h in HF solution (0.02; 0.05; 0.2; 1 µM). […] Afterwards, the zeocin solution was rinsed off with PBS. […] For the negative control, cells were left untreated in PBS for 1 h. […] Finally, the slides were stained with 20 µg/mL of ethidium bromide (Sigma-Aldrich, Bratislava, Slovakia), and, in each sample, 100 random nucleoids were scored at magnification 400× using a fluorescence microscope Olympus BX 51. The DNA damage was evaluated using the Comet visual computer software. DNA damage was expressed as the percentage of DNA in the tail (% tail DNA) [55]. […]

[8] = HF 0.75 µM pretreatment 24 h + cisPt 0.5 µM, 100 metaphases
[9] = HF 0.75 µM pretreatment + B(a)P 1.7 µM, 100 metaphases
[10] = HF 1.5 µM pretreatment 24 h + cisPt 0.5 µM, 100 metaphases
[11] = HF 1.5 µM pretreatment + B(a)P 1.7 µM, 100 metaphases
[12] = HF 0.75 µM pretreatment 24 h + cisPt 0.75 µM
[13] = HF 1.5 µM pretreatment 24 h + cisPt 0.75 µM
[14] = cisPt 0.5 µM (positive control), 100 metaphases
[15] = cisPt 0.75 µM (positive control)

## Hyperforin [HF]
[1]
  pIC50: 4.70
[2]
  antimutagenic effect: not observed
[3]
  number of his+ revertants vs positive control: significant decrease
[4]
  number of his+ revertants vs positive control: decrease
[5]; [8]
  Number of Aberrant Metaphases: 10 *^,###
  Number of Chromosome Aberrations, Chromatid b/f: 5
  Number of Chromosome Aberrations, Chromatid g: 2
  Number of Chromosome Aberrations, Exchange dic: 2
  Number of Chromosome Aberrations, Isochromatid b/f: 4
  Total Number of CA: 11 *^,###
[5]; [9]
  Number of Aberrant Metaphases: 8 ^###
  Number of Chromosome Aberrations, Chromatid b/f: 7
  Number of Chromosome Aberrations, Chromatid g: 1
  Number of Chromosome Aberrations, Isochromatid b/f: 1
  Total Number of CA: 8 ^###
[5]; [10]
  Number of Aberrant Metaphases: 14 **^,###
  Number of Chromosome Aberrations, Chromatid b/f: 10
  Number of Chromosome Aberrations, Chromatid g: 2
  Number of Chromosome Aberrations, Exchange dic: 1
  Number of Chromosome Aberrations, Isochromatid b/f: 3
  Total Number of CA: 14 **^,###
[5]; [11]
  Number of Aberrant Metaphases: 8 ^###
  Number of Chromosome Aberrations, Chromatid b/f: 8
  Number of Chromosome Aberrations, Chromatid g: 1
  Number of Chromosome Aberrations, Exchange dic: 1
  Total Number of CA: 9 ^###
[5]; HF 0.75 and 1.5 µM pretreatment 24 h, then cisPt 0.5 µM
  amount of aberrant metaphases and chromosome aberrations: significant decrease
[6]; [12]
  Number of Aberrant Metaphases: 12 **^,###
  Number of Chromosome Aberrations, Chromatid b/f: 8
  Number of Chromosome Aberrations, Chromatid g: 1
  Number of Chromosome Aberrations, Exchange dic: 1
  Number of Chromosome Aberrations, Exchange qr: 1
  Number of Chromosome Aberrations, Exchange tr: 1
  Number of Chromosome Aberrations, Isochromatid b/f: 3
  Total Number of CA: 14 ***^,###
[6]; [13]
  Number of Aberrant Metaphases: 11 **^,###
  Number of Chromosome Aberrations, Chromatid b/f: 8
  Number of Chromosome Aberrations, Chromatid g: 3
  Number of Chromosome Aberrations, Exchange dic: 1
  Number of Chromosome Aberrations, Exchange tr: 2
  Total Number of CA: 11 **^,###
[6]; HF pretreatment 24 h, then cisPt 0.75 µM
  amount of aberrant metaphases and chromosome aberrations: significant decrease
[7]
  percentage of damaged DNA vs positive control (zeocin): significantly decreased the percentage of damaged DNA

## N.N.[Cl][Pt][Cl] [cisPt, cisplatinum(II)diamine dichloride, reference compound]
[5]; [14]
  Number of Aberrant Metaphases: 38 ***
  Number of Chromosome Aberrations, Chromatid b/f: 36
  Number of Chromosome Aberrations, Chromatid g: 2
  Number of Chromosome Aberrations, Exchange dic: 2
  Number of Chromosome Aberrations, Exchange qr: 1
  Number of Chromosome Aberrations, Isochromatid b/f: 8
  Total Number of CA: 47 ***
[6]; [15]
  Number of Aberrant Metaphases: 33 ***
  Number of Chromosome Aberrations, Chromatid b/f: 26
  Number of Chromosome Aberrations, Chromatid g: 2
  Number of Chromosome Aberrations, Exchange qr: 4
  Number of Chromosome Aberrations, Exchange tr: 5
  Number of Chromosome Aberrations, Isochromatid b/f: 9
  Total Number of CA: 44 ***
